Assay results reported in the METLIN SMRT retention time set (Domingo-Almenara et al. 2019).

Assay: gradient 5% acetonitrile 3 min, to 50% in 2 min, to 85% in 15 min, held 3 min, 100 µL/min
Settings: column: Zorbax Extend-C18 2.1 x 50 mm; eluents: water / acetonitrile, 0.1% formic acid
In short: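 Each retention time is based on an adduct peak selected computationally and verified by manual inspection. Measurements used HPLC–quadrupole time-of-flight mass spectrometry in positive and negative ionization mode on mixtures of ~100 pure standards. Chromatography ran on a Zorbax Extend-C18 column (2.1 × 50 mm, 1.8 μm) at 100 μL/min with water and acetonitrile, each containing 0.1% formic acid, and dead and dwell volumes of 40 μL and 900 μL.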

Row | RP-LC retention time [s] | Structure (SMILES)
1 | 669 | COc1cc(C(=O)N2CCC3(CC2)NC(=O)c2ccccc2N3C)cc(OC)c1OC
2 | 566 | CC(=O)N1CCc2cc(N3CC(C(=O)N4CCN(c5ccccn5)CC4)CC3=O)ccc21 (centres undefined)
3 | 613 | COCCCNC(=O)N1CCCN(c2nc3cc(F)ccc3n3cccc23)CC1
4 | 1140 | Cc1ccc(C(=O)N2CCN(c3nc4ccccc4n(CC(C)C)c3=O)CC2)s1
5 | 755 | CCOC(=O)N1CCN(C(=O)C2CC2c2ccc(F)cc2)CC1 (centres undefined)
6 | 641 | COc1ccc(Br)cc1-c1nnc2n(C)c3c(=O)n(C)c(=O)n(C)c3n12
7 | 631 | CCc1nnc([C@@H]2CC(F)(F)CN2C(=O)c2nccn2C)o1
8 | 699 | CCCN1C(=O)c2n[nH]c(-c3ccco3)c2C1c1ccc(O)c(OC)c1 (centres undefined)
9 | 945 | Nc1nc(-c2ccc(Cl)cc2)nn1C(=O)C1CC1
10 | 564 | O=C(c1ccc2c(=O)n3c(nc2c1)CCCC3)N1CCN(c2ccccn2)CC1
11 | 1090 | O=C(CCc1nc(CSc2nc3ccccc3s2)no1)Nc1nc(-c2ccccc2)cs1
12 | 671 | O=C(Nc1c(-c2ccc(F)cc2)nc2ccccn12)c1ccc(F)cc1
13 | 748 | CSc1ccc(-c2nc3cc(C)ccn3c2Nc2ccc3c(c2)OCO3)cc1
14 | 605 | CNC(=O)C1CCCN(c2nc3ncn(CC(=O)NC4CCCC4)c(=O)c3s2)C1 (centres undefined)
15 | 594 | CC(C)Cn1ccc2c(cc(C(=O)NCCCN3CCOCC3)n2C)c1=O
16 | 686 | CCCCN(C)C(=O)C1CCCN(c2cnc3nccnc3c2)C1 (centres undefined)
17 | 1020 | c1ccc(-c2nc(CSc3ccc(-n4cccn4)nn3)cs2)cc1
18 | 934 | O=C(C1COc2ccccc2O1)N1CCCn2nc(-c3cccs3)cc2C1 (centres undefined)
19 | 655 | COc1ccc(NC(=O)Cc2nnc(-c3ccc4ncccc4c3)o2)cc1OC
20 | 1170 | COC(=O)c1cc(C)nc2c1c(=O)n(Cc1cc(C)ccc1C)c(=O)n2Cc1ccco1
21 | 560 | CCCNc1cc(N2CCC(CCC(=O)NCC3CC3)CC2)ncn1
22 | 581 | CNC(=O)C1CCN(Cc2noc(-c3ccc(F)cc3)n2)CC1
23 | 1010 | CCn1cc(C)c(C(=O)O)c1CC(=O)Nc1ccc(Cl)cc1

Row | RP-LC retention time [s] | Structure (SMILES)
24 | 968 | O=C(Cn1cccc(-c2nc(-c3ccccc3)no2)c1=O)Nc1ccc(Br)cc1
25 | 930 | CCCN(C(=O)C1CCCN(c2ncnc3c2nc2n3CCCCC2)C1)c1ccc(F)cc1 (centres undefined)
26 | 967 | COc1cc(OC)cc(N2C(=O)C3N=NN(Cc4nc(-c5ccccc5Cl)no4)C3C2=O)c1 (centres undefined)
27 | 581 | CCN1CCCC1CN(CC(=O)N1CCNCC1)S(=O)(=O)c1cc(C)ccc1C (centres undefined)
28 | 639 | Cn1c(=O)n([C@@H]2CCN(C(=O)C3CCC3)C2)c2ncccc21
29 | 1330 | Cc1ccc(-c2nc(-c3ccc(-n4cccn4)nc3)no2)cc1
30 | 679 | CCOCCOC1CCN(C(=O)c2ccoc2)CC1
31 | 798 | COc1ccc(-c2nc3cnccn3c2Nc2ccc(C(=O)NC3CCCCC3)cc2)cc1
32 | 860 | O=C(NCCc1ccccc1)N1CCc2nc(-c3ccccc3)ncc2C1
33 | 710 | O=C(Nc1ccccc1C(F)(F)F)N1CC(n2cnnc2-c2ccccc2)C1
34 | 754 | Cc1ccc(N2CCN(C(=O)C3CCCN(c4cnc5nccnc5c4)C3)CC2)cc1 (centres undefined)
35 | 768 | COCCC1CCN(C(=O)COc2ccc(OC)cc2)CC1
36 | 1000 | CCCn1cc(CCNS(=O)(=O)c2ccc(Cl)c(Cl)c2)c2cccnc21
37 | 621 | O=C(CCCn1c(=O)c2cccn2c2ccccc21)NCc1ccccn1
38 | 827 | CCN1C(=O)C(C)(C(=O)Nc2ccc(OC)cc2)Oc2cccnc21 (centres undefined)
39 | 865 | O=C(Cn1ccn2nc(-c3ccc(F)cc3)c(CO)c2c1=O)Nc1ccc(F)c(F)c1
40 | 937 | COc1ccc(-c2cc3c4nn(CC(=O)N5CCCc6ccccc65)c(=O)n4ccn3n2)cc1
41 | 691 | CCN(CC)C(=O)c1ccc(-n2nc(C)c3c2CCCC3=O)cc1
42 | 713 | O=C(NCCN1CCOCC1)c1cc2sccc2n1Cc1ccc(Cl)cc1
43 | 927 | Cc1nn(-c2ccccc2)c2ccn(CC(=O)N3CCN(c4cccc(Cl)c4)CC3)c(=O)c12
44 | 809 | CCCN(C(=O)c1ccc(C)cc1)c1nc(-c2ccccc2)cs1
45 | 628 | O=C(C1CCC1)N1CCC2(CC1)NCCc1c2[nH]c2ccccc12
46 | 699 | CS(=O)(=O)Nc1cccc(NC(=O)c2cc(-c3cccs3)[nH]n2)c1

Continued, molecule first:

Row | Structure (SMILES) | RP-LC retention time [s]
47 | COc1ccccc1-c1nnc(-c2ccc(OC)c(S(=O)(=O)N3CCCCCC3)c2)o1 | 1010
48 | O=C(O)c1cc(I)ccc1NC(=O)[C@H](Cc1ccccc1)NCc1ccccc1 | 863
49 | CNC(=O)C1CCCN(c2nc3ncn(CC(=O)NCC4CCCO4)c(=O)c3s2)C1 (centres undefined) | 569
50 | Cc1cccc(C2=NC3(CCN(C(=O)Nc4ccc5c(c4)OCO5)CC3)NC2=O)c1 | 790
51 | CC(=O)N1CCC(C(=O)Nc2ccc(OCc3nnc(-c4ccc(Cl)cc4)o3)cc2)CC1 | 758
52 | COc1cccc(Cn2cnc3c(-c4ccc(F)cc4)csc3c2=O)c1 | 1050
53 | O=C(NCc1ccccc1)C1CCN(C(=O)c2ncn3c2COC(c2ccc(Cl)cc2)C3)CC1 (centres undefined) | 760
54 | O=C(Cc1ccc(Cl)cc1)N1CCN(c2nnc3ccccn23)CC1 | 663
55 | CC(C)c1ccc(OCC(=O)Nc2nc(-c3ccccc3)cs2)cc1 | 1240
56 | NC(=O)c1ccsc1NC(=O)c1c(F)cccc1Cl | 706
57 | CC(C)NC(=O)Cn1c2ccccc2n2c(=O)cc(-c3cccc(Cl)c3)nc12 | 926
58 | O=C(c1ccc(-c2ccnc(N3CCCCC3)n2)cc1)N1CCC2(CC1)OCCO2 | 882
59 | O=C(CCn1nnc2cc(-c3noc(COc4ccccc4)n3)ccc21)N1CCOCC1 | 826
60 | CCN(CCCNC(=O)c1nnc(-c2ccc(S(=O)(=O)N3CCCC3)cc2)o1)c1ccccc1 | 714
61 | CCc1ccc(-c2cc(C(F)(F)F)on2)cc1S(=O)(=O)N1CCC(C)CC1 | 1350
62 | CCC(CC)C(=O)NCCc1nc2cccnc2n1-c1ccccc1 | 744
63 | COC(=O)c1ccccc1NC(=O)NCc1nc(-c2ccccc2)oc1C | 964
64 | COc1ccccc1-c1nc(-c2ccc3c(c2)nnn3CCN2CCCCC2)no1 | 663
65 | O=C(NC1CC1)[C@@H]1C[C@H](Oc2cccnc2)CN1C(=O)C1CC1 | 528
66 | COc1ccc(NC(=O)N2c3ccccc3CC2c2nc(C(C)C)no2)c(C)c1 (centres undefined) | 1220
67 | O=C(Nc1ccccc1)N1CC(n2ccnc2)C1 | 569
68 | CC(C)Cn1cc(CCNS(=O)(=O)c2cccc(Br)c2)c2cccnc21 | 990

Row | Structure (SMILES) | RP-LC retention time [s]
69 | COC(=O)c1cnc(N2CCN(c3ccc(OC)cc3)CC2)c2ccccc12 | 980
70 | Cn1c(=O)c2c(nc(OCCc3ccccc3)n2C)n(C)c1=O | 909
71 | COc1ccc2c(c1)CC(NC(=O)NCc1ccc(OC)cc1OC)CO2 (centres undefined) | 780
72 | CCOC(=O)CCC(=O)Nc1nnc2n1CCS2 | 558
73 | Cc1ccc(NC(=O)N2CC(c3nc(C)no3)C3(CCOCC3)C2)c(C)c1 (centres undefined) | 731
74 | Cc1cc(=O)oc2cc(OCC(O)CN3CCN(c4ccccn4)CC3)ccc12 (centres undefined) | 574
75 | O=C(Nc1ccc(F)c(F)c1)C1CCN(C(=O)C2Sc3ccccc3NC2=O)CC1 (centres undefined) | 810
76 | CCOC(=O)c1cccc(Nc2ncccc2S(N)(=O)=O)c1 | 854
77 | Cc1ccc(S(=O)(=O)N(C)CCCC(=O)N2CCN(c3ccccn3)CC2)cc1 | 576
78 | Cn1c(=O)n(C)c2cc(CNCCc3ccc(F)cc3)ccc21 | 609
79 | COc1ccc(NC(=O)CSc2nc(N3CCCCC3)nc3ccccc23)cc1 | 695
80 | Cc1cc(C)n(CCNC(=O)CN2CCN(c3ccc4c(c3)OCCO4)C2=O)n1 | 616
81 | CCOC(=O)C1CCN(C(=O)c2ccc3ccnc(N4CCN(c5ccc(F)cc5)CC4)c3c2)CC1 | 814
82 | CC(CNC(=O)CN1C(=O)C2CCCCN2c2ccc(S(=O)(=O)N(C)C)cc21)c1ccccc1 (centres undefined) | 943
83 | COc1ccc(NC(=O)c2c(-c3c(F)cccc3Cl)noc2C)cc1[N+](=O)[O-] | 992
84 | Cc1ccc(Cl)cc1NC(=O)N1CCC(CC(=O)N2CCCCC2)CC1 | 801
85 | CCCNC(=O)N1CC(c2nc(C)no2)C2(CCOCC2)C1 (centres undefined) | 634
86 | CCC1Oc2ccc(S(=O)(=O)N3CCC(C(=O)NCc4ccco4)CC3)cc2NC1=O (centres undefined) | 795
87 | CC1CCN(S(=O)(=O)c2ccc(Cl)c(-c3nnc(-c4ccccc4)o3)c2)CC1 | 1250
88 | COc1cc(OC)c(NC(=O)N2CCC(n3c(C(F)(F)F)nc4cccnc43)CC2)cc1Cl | 956
89 | COc1ccc(CC(=O)NCCc2nc3cccnc3n2C)cc1 | 581
